The results in this text go back to ChEMBL document CHEMBL5131389, “PSMA-targeted small-molecule docetaxel conjugate: Synthesis and preclinical evaluation” (Eur J Med Chem, 2022).

A short description of data set [1]: MRT (0 to t) in Soviet Chinchilla rabbit at 8.1 mg/kg, iv administered as pluronic F127 formulation measured upto 72 hrs by high-performance liquid chromatography tandem mass spectrometric analysis. The format is ADME, organism-based, Oryctolagus cuniculus. The conditions noted are these: in vivo.
Data set [2] is described as follows: Acute toxicity in ICR mouse assessed as animal death at 183 to 960 mg/kg, iv administered for 14 days as pluronic F127 formulation and measured after 5 days. The format is organism-based. As to conditions: in vivo, 456 h, dose 183-960 mg/kg, time 19 day.
The nature of data set [3]: Chronic toxicity in rat assessed as increase in relative mass of pancreas administered intravenously as pluronic F127 formulation at 4 intervals for 21 days and observed 3 weeks post last injection relative to control. The format is tissue-based. The conditions noted are these: in vivo, iv, 2544 h, time 106 day.
The subject of data set [4] is DU-145. The data set is described as follows: Antitumor activity against human DU-145 cells xenografted in BALB/c nude mouse assessed as reduction in tumor growth index at 60 mg/kg, ip measured upto 30 days (reference value: 1110.1 +/- 136.7 %). The format is functional. More on the design: scale not given: the % may be the effect or the level left. As to conditions: time <= 30 day. For orientation: A xenograft is tissue or cells of one species grown in another, often human tumour cells in immunodeficient mice.

Data set [5] is described as follows: Half-life in Albino Wistar rat at 15 mg/kg, iv administered as pluronic F127 formulation measured upto 72 hrs by high-performance liquid chromatography tandem mass spectrometric analysis. As to conditions: in vivo. The format is ADME, organism-based.
Data set [6] in a line: Acute toxicity in ICR mouse assessed as coprostasis at 183 to 960 mg/kg, iv administered as pluronic F127 formulation and measured for 14 days. The format is organism-based. As to conditions: in vivo, 336 h, dose 183-960 mg/kg, time 14 day.
Data set [7] is described as follows: Chronic toxicity in rat assessed as decrease in erythrocytes in blood administered intravenously as pluronic F127 formulation at 4 intervals for 21 days and observed 3 weeks post last injection relative to control. As to conditions: iv, 2544 h, time 106 day. The format is cell-based.

Broadly, the MRT last is the average time that molecules of a dose stay in the body. By half-life is commonly meant how long it takes for the measured level to halve.

Turning to `CC(=O)O[C@@]12CO[C@@H]1C[C@H](O)[C@@]1(C)C(=O)[C@H](O)C3=C(C)[C@@H](OC(=O)[C@H](OC(=O)CCCc4cn(CCCNC(=O)[C@H](Cc5ccc(O)cc5)NC(=O)[C@H](Cc5ccccc5)NC(=O)CCC(=O)NCCCCCC(=O)N(CCCC[C@H](NC(=O)N[C@@H](CCC(=O)O)C(=O)O)C(=O)O)Cc5cccc(Cl)c5)nn4)[C@@H](NC(=O)OC(C)(C)C)c4ccccc4)C[C@@](O)([C@@H](OC(=O)c4ccccc4)[C@H]21)C3(C)C`, the MRT last at 72 h in data set [1] is 7.4 h. Moreover, the Activity result was “Toxic” in data set [2]; “Toxic” in data set [3]; 150.9% in data set [4]; “Toxic” in data set [6]; “Toxic” in data set [7]. In data set [5], this compound showed a half-life of 0.997 h.
